The values below come from doi:10.1101/2021.10.07.463234v2 (biorxiv, 2021).

The assay addresses SARS-CoV-2 Mac1 (Severe acute respiratory syndrome coronavirus 2, UniProt P0DTD1). Nature of the assay: biochemical. The conditions noted are these: for inhibition at 100 µM: read-out: %inhibition; for %inhibition: 100 µM, inhibitor.

Where a name gives a salt, the structure may show the parent alone.

With `NC(=NCCCCCCN=C(N)/N=C(\N)Nc1ccc(Cl)cc1)/N=C(\N)Nc1ccc(Cl)cc1` [Chlorhexidine], the inhibition at 100 µM was 10%. Same read-out and setting: to `CC(=O)O[C@]1(C(C)=O)CC[C@H]2[C@@H]3C=C(Cl)C4=CC(=O)CC[C@]4(C)[C@H]3CC[C@@]21C` [Chlormadinone acetate] belongs 0%; to `CN1C(=O)CCS(=O)(=O)C1c1ccc(Cl)cc1` (centres unmarked) [Chlormezanone], 20.4%; to `Cc1cc(O)ccc1Cl` [Chlorocresol], 24.2%.

For `CCN(CC)CCOC(=O)c1ccc(N)cc1Cl` [Chloroprocaine HCl], the inhibition at 100 µM was 0%. On to `CCN(CC)CCCC(C)Nc1ccnc2cc(Cl)ccc12` (centres unmarked) [Chloroquine Phosphate], for which the “%inhibition” value was found to be 4.168%. As to `NS(=O)(=O)c1cc2c(cc1Cl)N=CNS2(=O)=O` [Chlorothiazide], the inhibition at 100 µM came out at 0%.

As for `COc1ccc(C(Cl)=C(c2ccc(OC)cc2)c2ccc(OC)cc2)cc1` [Chlorotrianisene], the inhibition at 100 µM is 0%. For `Oc1c(Cl)cc(Cl)c2cccnc12` [Chloroxine], the inhibition at 100 µM came to 10.2%. `Cc1cc(O)cc(C)c1Cl` [Chloroxylenol]: the inhibition at 100 µM was 0%. For the molecule `CN(C)CCC(c1ccc(Cl)cc1)c1ccccn1` (centres unmarked) [Chlorpheniramine Maleate], the inhibition at 100 µM stood at 6.37%. Still for that read-out and setting: to `CN(C)CCCN1c2ccccc2Sc2ccc(Cl)cc21` [Chlorpromazine HCl] belongs 0%; to `CCCNC(=O)NS(=O)(=O)c1ccc(Cl)cc1` [Chlorpropamide], 0%. Regarding `CN(C)CC/C=C1/c2ccccc2Sc2ccc(Cl)cc21` [Chlorprothixene hydrochloride], the “%inhibition” value came to 0%. On to `CN(C)CC/C=C1/c2ccccc2Sc2ccc(Cl)cc21` [Chlorprothixene], for which the “%inhibition” value is reported as 13.67%.

As for `Cc1ccc2c(Cl)cc(Cl)c(O)c2n1` [Chlorquinaldol], the inhibition at 100 µM is 1.48%. On to `CN(C)[C@@H]1C(O)=C(C(N)=O)C(=O)[C@@]2(O)C(O)=C3C(=O)c4c(O)ccc(Cl)c4[C@@](C)(O)[C@H]3C[C@@H]12` [Chlortetracycline HCl], for which the inhibition at 100 µM came to 1.82%. With `NS(=O)(=O)c1cc(C2(O)NC(=O)c3ccccc32)ccc1Cl` (centres unmarked) [Chlorthalidone], the inhibition at 100 µM came to 1.46%.

Take `C[C@H](CCC(=O)O)[C@H]1CC[C@H]2[C@@H]3[C@H](O)C[C@@H]4C[C@H](O)CC[C@]4(C)[C@H]3C[C@H](O)[C@]12C` [Cholic acid]: the inhibition at 100 µM is 0%.

Turning to `C[N+](C)(C)CCO` [Choline Chloride], the inhibition at 100 µM was 0%.

With `O=C(O)C(O)C(O)C(=O)O` (centres unmarked) [Choline bitartrate], the inhibition at 100 µM was found to be 0%. For `O=C(O)c1cc(=O)c2ccccc2o1` [Chromocarb], the inhibition at 100 µM worked out at 21.6%. On the same count and under the same terms, then `CC(C)C(=O)OCC(=O)[C@@]12O[C@H](C3CCCCC3)O[C@@H]1C[C@H]1[C@@H]3CCC4=CC(=O)C=C[C@]4(C)[C@H]3[C@@H](O)C[C@@]12C` [Ciclesonide], with 0%. With `Cc1cc(C2CCCCC2)n(O)c(=O)c1` [Ciclopirox ethanolamine], the “%inhibition” value was 12.57%.

With `Cc1cc(C2CCCCC2)n(O)c(=O)c1` [Ciclopirox], the inhibition at 100 µM amounted to 22.9%. As for `Nc1ccn(C[C@@H](CO)OCP(=O)(O)O)c(=O)n1` [Cidofovir], the inhibition at 100 µM came to 0%. As for `CC1(C)C[C@@H]1C(=O)N/C(=C\CCCCSC[C@H](N)C(=O)O)C(=O)O` [Cilastatin], the inhibition at 100 µM was 0%. Still for that read-out and setting: to `CC(C)[C@H]1C(=O)N[C@@H](CCCN=C(N)N)C(=O)NCC(=O)N[C@@H](CC(=O)O)C(=O)N[C@H](Cc2ccccc2)C(=O)N1C` [Cilengitide?trifluoroacetate] belongs 10.8%; to `COCCOC(=O)C1=C(C)NC(C)=C(C(=O)OC/C=C/c2ccccc2)C1c1cccc([N+](=O)[O-])c1` (centres unmarked) [Cilnidipine], 0%; to `COc1ccc([C@]2(C#N)CC[C@@H](C(=O)O)CC2)cc1OC1CCCC1` [Cilomilast], 1.61%. Take `O=C1CCc2cc(OCCCCc3nnnn3C3CCCCC3)ccc2N1` [Cilostazol]: the inhibition at 100 µM was found to be 7.33%. As to `CN/C(=N\CCSCc1nc[nH]c1C)NC#N` [Cimetidine], the inhibition at 100 µM came out at 20.9%.

In the case of `C[C@@H](NCCCc1cccc(C(F)(F)F)c1)c1cccc2ccccc12` [Cinacalcet HCl], the inhibition at 100 µM worked out at 4.38%.

As to `CCCCOc1cc(C(=O)NCCN(CC)CC)c2ccccc2n1` [Cinchocaine], the inhibition at 100 µM was determined as 0%. With `O=C(O)c1cc(-c2ccccc2)nc2ccccc12` [Cinchophen], the inhibition at 100 µM was determined as 17.7%. On the same count and under the same terms, then `COc1cc(/C=C/C(=O)N2CCN(CC(=O)N3CCCC3)CC2)cc(OC)c1OC` [Cinepazide maleate], with 24.7%; and `CCn1nc(C(=O)O)c(=O)c2cc3c(cc21)OCO3` [Cinoxacin], with 0.626%; and `CC(C)(Oc1ccc(C2CC2(Cl)Cl)cc1)C(=O)O` (centres unmarked) [Ciprofibrate], with 20.7%.

On to `COc1cc(N)c(Cl)cc1C(=O)N[C@H]1CCN(CCCOc2ccc(F)cc2)C[C@H]1OC` [Cisapride hydrate], for which the inhibition at 100 µM is 0%.

`COc1cc(N)c(Cl)cc1C(=O)N[C@@H]1CCN(CCCOc2ccc(F)cc2)C[C@@H]1OC` [Cisapride]: the inhibition at 100 µM is 1.02%.

With `COc1ccc(C[C@@H]2c3cc(OC)c(OC)cc3CC[N@+]2(C)CCC(=O)OCCCCCOC(=O)CC[N@@+]2(C)CCc3cc(OC)c(OC)cc3[C@H]2Cc2ccc(OC)c(OC)c2)cc1OC` [Cisatracurium Besylate], the “%inhibition” value is 1.897%. With `CN(C)CCCC1(c2ccc(F)cc2)OCc2cc(C#N)ccc21` (centres unmarked) [Citalopram HBr], the inhibition at 100 µM is 0%. Regarding `C[N+](C)(C)CCOP(=O)(O)OP(=O)([O-])OC[C@H]1O[C@@H](n2ccc(N)nc2=O)[C@H](O)[C@@H]1O` [Citicoline sodium], the inhibition at 100 µM came to 1.89%. For the molecule `CC(=O)NC1CCSC1=O` (centres unmarked) [Citiolone], the inhibition at 100 µM came to 0%. In the case of `O=C(O)CC(O)(CC(=O)O)C(=O)O` [Citric acid trilithium salt tetrahydrate], the inhibition at 100 µM was 0%. Take `Nc1nc(Cl)nc2c1ncn2[C@H]1C[C@H](O)[C@@H](CO)O1` [Cladribine]: the inhibition at 100 µM came to 1.17%.

Take `CC[C@H]1OC(=O)[C@H](C)[C@@H](O[C@H]2C[C@@](C)(OC)[C@@H](O)[C@H](C)O2)[C@H](C)[C@@H](O[C@@H]2O[C@H](C)C[C@H](N(C)C)[C@H]2O)[C@](C)(OC)C[C@@H](C)C(=O)[C@H](C)[C@@H](O)[C@]1(C)O` [Clarithromycin]: the inhibition at 100 µM amounted to 24.2%. As to `CCCC(=O)OCOC(=O)C1=C(C)NC(C)=C(C(=O)OC)C1c1cccc(Cl)c1Cl` (centres unmarked) [Clevidipine Butyrate], the inhibition at 100 µM stood at 0%. As for `Cc1cn([C@H]2O[C@@H](CO)[C@H](O)[C@H]2F)c(=O)[nH]c1=O` [Clevudine], the inhibition at 100 µM was 18.3%. On the same count and under the same terms, to `CC(C)(C)C(=O)C(Oc1ccc(Cl)cc1)n1ccnc1` (centres unmarked) [Climbazole] belongs 18.5%. Same read-out and setting: then `CCC[C@@H]1C[C@@H](C(=O)N[C@@H]([C@H]2O[C@H](SC)[C@H](OP(=O)(O)O)[C@@H](O)[C@H]2O)[C@H](C)Cl)N(C)C1` [Clindamycin Phosphate], with 0%; and `CCCCCCCCCCCCCCCC(=O)O[C@@H]1[C@@H](O)[C@@H](O)[C@@H]([C@H](NC(=O)[C@@H]2C[C@@H](CCC)CN2C)[C@H](C)Cl)O[C@@H]1SC` [Clindamycin palmitate HCl], with 22.9%; and `CCC(C)(Oc1ccc(C2(c3ccc(OC(C)(CC)C(=O)O)cc3)CCCCC2)cc1)C(=O)O` (centres unmarked) [Clinofibrate], with 0%. Same read-out and setting: to `Oc1c(I)cc(Cl)c2cccnc12` [Clioquinol] belongs 6.9%; to `CCC(=O)O[C@]1(C(=O)CCl)[C@@H](C)C[C@H]2[C@@H]3CCC4=CC(=O)C=C[C@]4(C)[C@@]3(F)[C@@H](O)C[C@@]21C` [Clobetasol propionate], 9.68%. For `Nc1nc(Cl)nc2c1ncn2[C@@H]1O[C@H](CO)[C@@H](O)[C@@H]1F` [Clofarabine], the inhibition at 100 µM was determined as 44.7%. `CC(C)/N=c1\cc2n(-c3ccc(Cl)cc3)c3ccccc3nc-2cc1Nc1ccc(Cl)cc1` [Clofazimine]: the inhibition at 100 µM stood at 5.33%.

With `CC(C)(Oc1ccc(Cl)cc1)C(=O)O` [Clofibric Acid], the inhibition at 100 µM amounted to 17.2%. As for `CC(C)(C)CC(C)(C)c1ccc(O)c(Cc2ccc(Cl)cc2Cl)c1` [Clofoctol], the inhibition at 100 µM came out at 0%. For `Clc1cccc(Cl)c1NC1=NCCN1` [Clonidine HCl], the inhibition at 100 µM turned out to be 0%. For `Clc1ccc(C(OCCN2CCCCC2)c2ccccc2)cc1` (centres unmarked) [Cloperastine hydrochloride], the inhibition at 100 µM worked out at 5.64%. With `COC(=O)[C@H](c1ccccc1Cl)N1CCc2sccc2C1` [Clopidogrel], the inhibition at 100 µM was determined as 0%.

Turning to `Cc1nc(C)c(Cl)c(O)c1Cl` [Clopidol], the inhibition at 100 µM is 0.707%. Consider `CC(C)NCC(O)c1ccccc1Cl` (centres unmarked) [Clorprenaline HCl], for which the inhibition at 100 µM is 7.59%. For `Nc1cc(C(Cl)=C(Cl)Cl)c(S(N)(=O)=O)cc1S(N)(=O)=O` [Clorsulon], the inhibition at 100 µM was found to be 7.3%. For the molecule `Cc1cc(C(C#N)c2ccc(Cl)cc2)c(Cl)cc1NC(=O)c1cc(I)cc(I)c1O` (centres unmarked) [Closantel], the “%inhibition” value was 12.2%. `Cc1onc(-c2ccccc2Cl)c1C(=O)N[C@@H]1C(=O)N2[C@@H]1SC(C)(C)[C@@H]2C(=O)O` [Cloxacillin Sodium]: the inhibition at 100 µM is 9.79%. As to `Oc1ccc(Cl)c2cccnc12` [Cloxiquine], the inhibition at 100 µM was found to be 8.06%.

Turning to `O=C(c1ccc(F)c(F)c1Nc1ccc(I)cc1F)N1CC(O)([C@@H]2CCCCN2)C1` [Cobimetinib (GDC-0973, RG7420)], the inhibition at 100 µM turned out to be 5.28%. Take `CC(=O)OCC(=O)[C@@]1(O)CC[C@H]2[C@@H]3CCC4=CC(=O)CC[C@]4(C)[C@H]3C(=O)C[C@@]21C` [Cortisone acetate]: the inhibition at 100 µM is 10.7%. Take `O=c1ccc2ccccc2o1` [Coumarin]: the inhibition at 100 µM came out at 5.25%.

As a reminder, the inhibition is the drop in the measured response relative to a control, in per cent. A word on the %inhibition: it is how much of the control response was suppressed. A higher %inhibition goes with strong suppression.
